Test results reported in patent publication US8741849B2, “Kinase inhibitors and uses thereof” (priority 2007, dated 2014).
Where no end group is shown, it is not given here.

Key:
[1] = system: Ca2+/calmodulin-dependent protein kinase II (CaMKII); conditions: cited from earlier work
PKA = conditions: 1 μM AIP; cited from earlier work
PKC = conditions: 1 μM AIP; cited from earlier work
CaMKIV = biological target: T1, CaMKIV (Homo sapiens, UniProt Q16566); conditions: 1 μM AIP; cited from earlier work
T1 sequence (Q16566 1-473): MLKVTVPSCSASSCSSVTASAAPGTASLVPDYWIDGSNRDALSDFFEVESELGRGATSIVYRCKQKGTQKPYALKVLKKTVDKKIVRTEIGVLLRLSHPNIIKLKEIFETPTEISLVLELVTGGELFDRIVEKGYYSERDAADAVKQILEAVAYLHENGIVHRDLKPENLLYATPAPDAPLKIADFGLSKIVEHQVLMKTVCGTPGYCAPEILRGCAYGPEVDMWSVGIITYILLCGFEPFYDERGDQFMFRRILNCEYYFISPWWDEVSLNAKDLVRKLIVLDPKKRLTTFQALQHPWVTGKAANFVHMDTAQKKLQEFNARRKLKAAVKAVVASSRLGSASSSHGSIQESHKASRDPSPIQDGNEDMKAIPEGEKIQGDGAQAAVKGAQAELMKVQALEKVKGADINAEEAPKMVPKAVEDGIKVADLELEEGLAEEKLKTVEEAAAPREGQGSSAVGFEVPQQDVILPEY

MAPKAP kinase II (MK2) = MAPKAP kinase II (MK2) (Homo sapiens, UniProt P49137); assay: Omnia Lysate Assay for MAPKAP-K2: MK2 reaction velocity; format: biochemical; conditions: same assay conditions as Example 1
Protocol: Using the Omnia™ Lysate Assay for MAPKAP-K2 kit (Invitrogen, Carlsbad, Calif.), the reaction velocity for MK2 was determined in the presence and absence of each of the peptides listed in Table 2. Briefly, inhibitor peptide concentrations at 12.5 μmol, 25 μmol, 50 μmol and 100 μmol were evaluated. The kit contains a proprietary reaction buffer to which the following are added (final concentrations are given): 1 mM ATP, 0.2 mM DTT, 10 μM MAPKAP-K2 Sox-modified peptide substrate, 5 ng MK2, and the peptide inhibitor of interest (final volume of 50 μL). The reactions were performed in the wells of a low protein-binding 96-well plate provided with the kit, and fluorescence readings at 485 nm were taken every 30 seconds for 20 minutes in a Molecular Devices M5 Spectrophotometer. A peptide having the sequence […]
The MK2 inhibition activity of […] [SEQ ID NO: 134] transduction domain was compared with the MK2 inhibition activity of other known transduction domains—[…] [SEQ ID NO: 135] and […] [SEQ ID NO: 190]. The transduction domains were tested for MK2 activity using the same assay conditions as Example 1.
A set of MK2 inhibitor peptides having transduction domains was synthesized (see Table 5). Variants included peptides with the […] [SEQ ID NO: 134] transduction domain and alanine substituted for asparagine, alanine substituted for glycine, or both alanine substitutions in the therapeutic domain. The same peptides with the […] [SEQ ID NO: 135] transduction domain also were prepared. The reaction velocities of these variants were compared to the reaction velocity of a blank with no inhibitor added.

A549 lung cancer cells = assay: Toxicity testing on cancer cell lines (MTT); format: cell-based; conditions: 72 hours, n=4, read-out: Cell Line IC50, A549
Protocol: (§1) The seven cell lines were: estrogen dependent MCF-7 breast cancer cells, non estrogen dependent MDA 231 breast cancer cells, SF 539 central nervous system cancer cells, HT29 colon cancer cells, Paca 2 pancreatic cancer cells, PC3 prostate cancer cells, and A549 lung cancer cells. For each cell line, exponentially growing cells were trypsinized and seeded into individual wells of a 96-well plate. Cells were maintained in a humidified, 5% CO2 incubator at 37° C. for 24 hours. The next day, fresh media was added along with 1 μl of a stock solution of peptide to give final peptide concentrations of 0.3 μM, 1 μM, 3 μM, 10 μM, 30 μM, and 100 μM (n=4). Doxorubicin was tested as a positive control. After incubating the cells for 72 hours, to each well was added 20 μl of 0.5% MTT {3-([…])-2,5 diphenyl tetrazolium bromide} solution. The plates then were incubated for an additional 4 hours, at which time the absorbance at 570 nm was measured for each well using a microplate reader. The absorbance was plotted as function of peptide concentration, and IC50 values were calculated for each peptide for each cell line.

HT29 colon cancer cells = assay: Toxicity testing on cancer cell lines (MTT); format: cell-based; conditions: 72 hours, n=4, read-out: Cell Line IC50, HT29
Protocol: as §1

[2] = system: PC3 prostate cancer cells; assay: Toxicity testing on cancer cell lines (MTT); format: cell-based; conditions: 72 hours, n=4, read-out: Cell Line IC50, PC3
Protocol: as §1

[3] = system: Paca 2 pancreatic cancer cells; assay: Toxicity testing on cancer cell lines (MTT); format: cell-based; conditions: 72 hours, n=4, read-out: Cell Line IC50, Paca 2
Protocol: as §1

[4] = system: SF 539 central nervous system cancer cells; assay: Toxicity testing on cancer cell lines (MTT); format: cell-based; conditions: 72 hours, n=4, read-out: Cell Line IC50, SF 539
Protocol: as §1

[5] = system: estrogen dependent MCF-7 breast cancer cells; assay: Toxicity testing on cancer cell lines (MTT); format: cell-based; conditions: 72 hours, n=4, read-out: Cell Line IC50, MCF-7
Protocol: as §1

[6] = system: non estrogen dependent MDA 231 breast cancer cells; assay: Toxicity testing on cancer cell lines (MTT); format: cell-based; conditions: 72 hours, n=4, read-out: Cell Line IC50, MDA 231
Protocol: as §1

Sequence of MAPKAP kinase II (MK2) (P49137 whole entry, species assumed): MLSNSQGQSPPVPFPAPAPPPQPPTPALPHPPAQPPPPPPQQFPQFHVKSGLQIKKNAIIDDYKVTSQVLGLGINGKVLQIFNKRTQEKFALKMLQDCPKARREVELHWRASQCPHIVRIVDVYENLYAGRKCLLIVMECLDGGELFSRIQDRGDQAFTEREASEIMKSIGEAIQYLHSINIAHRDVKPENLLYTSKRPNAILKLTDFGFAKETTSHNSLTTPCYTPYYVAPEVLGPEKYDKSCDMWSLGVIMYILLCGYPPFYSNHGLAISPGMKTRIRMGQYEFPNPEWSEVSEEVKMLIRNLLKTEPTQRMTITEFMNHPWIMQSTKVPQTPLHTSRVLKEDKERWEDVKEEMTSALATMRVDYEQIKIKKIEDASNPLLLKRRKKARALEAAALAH

| Substance | CaMKII activity ([1]; 1 μM AIP) | IC50 [1] [nM] | PKA activity (PKA) | PKC activity (PKC) | CaMKIV activity (CaMKIV) | MK2 inhibition (in words) (MAPKAP kinase II (MK2)) | IC50 (A549 lung cancer cells) [µM] | IC50 (HT29 colon cancer cells) [µM] | IC50 [2] [µM] | IC50 [3] [µM] | IC50 [4] [µM] | IC50 [5] [µM] | IC50 [6] [µM] |
| --- | --- | --- | --- | --- | --- | --- | --- | --- | --- | --- | --- | --- | --- |
| KKALRRQEAVDAL [AIP] | completely inhibited | 100 | not affected | not affected | not affected |  |  |  |  |  |  |  |  |
| WLRRIKA [WLRRIKA] |  |  |  |  |  | same level of inhibition as the no inhibitor control |  |  |  |  |  |  |  |
| WLRRIKAHRRIKALARQLGVAA [Peptide 2] |  |  |  |  |  |  | 31.9 | 26.4 | 28.9 | 19.5 | 26 | 7.8 | 19.9 |
| WLRRIKAWLRR [Peptide 3] |  |  |  |  |  |  | 34.3 | 20.7 | 35.5 | 42.5 | 22 | 13.5 | 17.4 |
| WLRRIKAWLRRALNRQLGVAA [Peptide 4] |  |  |  |  |  |  | 12.5 | 11.8 | 23.7 | 11.2 | 10 | 4.4 | 12 |
| YARAAARQARA [reference compound] |  |  |  |  |  | also inhibit MK2 but not nearly as much as WLRRIKAWLRRIKA |  |  |  |  |  |  |  |
